Legend:
[1] = target: T1, L-type amino acid transporter 1 (LAT1) (Homo sapiens, UniProt Q01650); experiment: inhibition of pregabalin uptake in hCMEC/D3 cells at […] (LAT1 role supported by siRNA); format: cell-based; set-up: gene SLC7A5; endogenous LAT1 in hCMEC/D3 cells; conditions: read-out: Uptake (% of Control)
[2] = target: T1, L-type amino acid transporter 1 (LAT1); experiment: LC-MS/MS uptake in LAT1-overexpressing HEK293 cells vs mock; inhibition of […]L-leucine uptake at […]; format: cell-based; set-up: gene SLC7A5; entire coding region for human SLC7A5, expressed in HEK293 cells; with 4F2 heavy chain (4F2hc), endogenous

T1 sequence (Q01650 whole entry): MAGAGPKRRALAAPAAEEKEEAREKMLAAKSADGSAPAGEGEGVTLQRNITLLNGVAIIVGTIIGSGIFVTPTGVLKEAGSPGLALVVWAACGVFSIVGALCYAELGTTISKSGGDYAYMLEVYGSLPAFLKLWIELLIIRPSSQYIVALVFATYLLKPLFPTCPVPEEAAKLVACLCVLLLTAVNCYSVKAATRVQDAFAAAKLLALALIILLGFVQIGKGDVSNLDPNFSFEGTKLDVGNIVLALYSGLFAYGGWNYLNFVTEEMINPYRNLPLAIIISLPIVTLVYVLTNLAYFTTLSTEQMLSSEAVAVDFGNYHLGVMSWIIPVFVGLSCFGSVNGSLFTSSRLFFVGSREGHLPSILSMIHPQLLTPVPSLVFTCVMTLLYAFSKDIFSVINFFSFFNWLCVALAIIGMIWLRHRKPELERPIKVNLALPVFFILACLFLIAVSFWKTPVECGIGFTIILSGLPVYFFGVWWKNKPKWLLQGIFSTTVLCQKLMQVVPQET
T1 sequence (P08195 103-630 partner): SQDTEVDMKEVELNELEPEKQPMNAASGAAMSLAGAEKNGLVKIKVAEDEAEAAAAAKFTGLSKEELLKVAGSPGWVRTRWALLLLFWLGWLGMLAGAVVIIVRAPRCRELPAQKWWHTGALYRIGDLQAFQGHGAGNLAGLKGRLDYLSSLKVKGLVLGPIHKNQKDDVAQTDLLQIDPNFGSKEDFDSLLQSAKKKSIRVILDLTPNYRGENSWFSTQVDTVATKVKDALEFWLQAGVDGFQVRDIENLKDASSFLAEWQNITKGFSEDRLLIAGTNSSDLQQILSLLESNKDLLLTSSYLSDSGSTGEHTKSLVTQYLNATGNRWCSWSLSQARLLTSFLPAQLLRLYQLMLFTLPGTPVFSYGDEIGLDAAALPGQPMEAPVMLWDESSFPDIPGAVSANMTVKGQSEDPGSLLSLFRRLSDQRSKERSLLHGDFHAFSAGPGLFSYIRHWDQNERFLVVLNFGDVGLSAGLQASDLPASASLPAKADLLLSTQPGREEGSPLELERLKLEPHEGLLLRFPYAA

Row | Compound | remaining activity at 10 µM [1] [%] | Km [2] [µM]
1 | Nc1cc(COc2c(Cl)cc(C[C@H](N)C(=O)O)cc2Cl)c2oc(-c3ccccc3)nc2c1 [JPH203] | < 6.53 | –
2 | CC(C)C[C@H](CN)CC(=O)O [pregabalin] | – | 288

— paper PMC6208607, “Transport of Pregabalin Via L-Type Amino Acid Transporter 1 (SLC7A5) in Human Brain Capillary Endothelial Cell Line” (Pharmaceutical Research, 2018)
